Molecular target: NADPH oxidase 1 (Homo sapiens) (UniProt Q9Y5S8)
Assay: potency of NOX1 inhibition in cells – cell-based, luminescence, cherry picks 2, dose response (AID 434997)
Conditions: NOX1-expressing cells, ROS luminescence

Sequence of NADPH oxidase 1 (Homo sapiens) (Q9Y5S8 whole entry, looked up): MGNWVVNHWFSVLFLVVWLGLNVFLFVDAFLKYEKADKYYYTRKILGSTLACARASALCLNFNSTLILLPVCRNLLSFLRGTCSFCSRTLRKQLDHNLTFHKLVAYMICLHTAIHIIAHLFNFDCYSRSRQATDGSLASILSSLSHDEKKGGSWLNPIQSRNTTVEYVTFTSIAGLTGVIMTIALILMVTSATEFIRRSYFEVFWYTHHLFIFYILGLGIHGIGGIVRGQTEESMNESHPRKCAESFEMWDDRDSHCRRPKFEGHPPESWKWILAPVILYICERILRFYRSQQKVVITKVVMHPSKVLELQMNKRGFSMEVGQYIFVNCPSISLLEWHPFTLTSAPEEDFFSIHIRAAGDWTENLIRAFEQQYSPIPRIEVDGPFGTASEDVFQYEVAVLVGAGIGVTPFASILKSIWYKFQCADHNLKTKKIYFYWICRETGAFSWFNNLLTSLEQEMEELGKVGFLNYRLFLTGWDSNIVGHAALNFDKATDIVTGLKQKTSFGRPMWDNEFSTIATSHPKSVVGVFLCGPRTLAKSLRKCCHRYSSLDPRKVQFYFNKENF

IC50: 0.32 µM
Structure (SMILES): FC(F)(F)c1ccc2c(c1)Nc1ccccc1S2

Source: PubChem BioAssay AID434997 (The Scripps Research Institute Molecular Screening Center, 2010)
